Consider 27 compounds from patent US8841449B2, “Compounds useful as inhibitors of ATR kinase” (Vertex Pharmaceuticals Incorporated, priority 2011, dated 2014).

Data set [1] concerns the target T1, ATR kinase (full-length ATR) (Homo sapiens, UniProt Q13535).
T1 construct: Assays were carried out at 25° C. in the presence of 5 nM full-length ATR
Kind of data set: ATR Inhibition Assay (radioactive-phosphate incorporation). The class given is biochemical. The settings on record: Ki(app); 10 μM ATP, 800 μM target peptide, 5 nM full-length ATR, 25° C. The method, then:
Compounds were screened for their ability to inhibit ATR kinase using a radioactive-phosphate incorporation assay. Assays were carried out in a mixture of 50 mM Tris/HCl (pH 7.5), 10 mM MgCl2 and 1 mM DTT. Final substrate concentrations were 10 μM [γ-33P]ATP (3mCi 33P ATP/mmol ATP, Perkin Elmer) and 800 μM target peptide (ASELPASQPQPFSAKKK).
Assays were carried out at 25° C. in the presence of 5 nM full-length ATR. An assay stock buffer solution was prepared containing all of the reagents listed above, with the exception of ATP and the test compound of interest. 13.5 μL of the stock solution was placed in a 96 well plate followed by addition of 2 μL of DMSO stock containing serial dilutions of the test compound (typically starting from a final concentration of 15 μM with 3-fold serial dilutions) in duplicate (final DMSO concentration 7%). The plate was pre-incubated for 10 minutes at 25° C. and the reaction initiated by addition of 15 μL [γ-33P]ATP (final concentration 10 μM).
The reaction was stopped after […] by the addition of 30 μL 0.1M phosphoric acid containing 2 mM ATP. A multiscreen phosphocellulose filter 96-well plate (Millipore, Cat no. MAPHN0B50) was pretreated with 100 μL 0.2M phosphoric acid prior to the addition of 45 μL of the stopped assay mixture. The plate was washed with 5×200 μL 0.2M phosphoric acid. After drying, 100 μL Optiphase ‘SuperMix’ liquid scintillation cocktail (Perkin Elmer) was added to the well prior to scintillation counting (1450 Microbeta Liquid Scintillation Counter, Wallac).
After removing mean background values for all of the data points, Ki(app) data were calculated from non-linear regression analysis of the initial rate data using the Prism software package (GraphPad Prism version 3.0cx for Macintosh, GraphPad Software, San Diego Calif., USA).

Data set [2] in a line: Pharmacokinetics (clearance and volume of distribution). The class given is in vivo. To be noted: for clearance / Vd: in vivo, noncompartmental, intravenous (IV) dosing, species not given; for Vd: read-out: Vss (steady state volume of distribution). The text has this:
Noncompartmental pharmacokinetic parameters can be analyzed using Watson Bioanalytical LIMS (Version 7.4; Thermo Fisher Scientific) from either the blood or plasma samples. The following parameters can be estimated following intravenous (IV) dosing: terminal elimination half-life (T1/2=ln(2)/λz, where λz is the first order rate constant associated with the terminal (log-linear) portion of the curve); the area under the curve (AUClast=area under the curve from the time of dosing to the last measurable concentration); the area under the curve extrapolated to infinity (AUC0-∞=AUClast+Clast/λz). The clearance (Cl; Cl=DoseIV/AUC0-∞); the area under the first moment curve (AUMClast=area under the concentration times time versus time curve from the time of dosing to the last measurable concentration); the area under the first moment curve extrapolated to infinity (AUMC0-∞=AUMClast+Clast×t/λz+Clast/λz^2); the mean residence time (MRT=AUMC0-∞/AUC0-∞); and the steady state volume of distribution (Vdss=MRT×Cl).
Clearance and volume of distribution can also be obtained using methods known to one of skill in the art (see e.g., Handbook of Essential Pharmacokinetics, Pharmacodynamics and Drug Metabolism for Industrial Scientists, Younggil Kwon, pp 18-28 (Noncompartmental Approach)).

The structures appear in SMILES notation.

T1 sequence (Q13535 whole entry): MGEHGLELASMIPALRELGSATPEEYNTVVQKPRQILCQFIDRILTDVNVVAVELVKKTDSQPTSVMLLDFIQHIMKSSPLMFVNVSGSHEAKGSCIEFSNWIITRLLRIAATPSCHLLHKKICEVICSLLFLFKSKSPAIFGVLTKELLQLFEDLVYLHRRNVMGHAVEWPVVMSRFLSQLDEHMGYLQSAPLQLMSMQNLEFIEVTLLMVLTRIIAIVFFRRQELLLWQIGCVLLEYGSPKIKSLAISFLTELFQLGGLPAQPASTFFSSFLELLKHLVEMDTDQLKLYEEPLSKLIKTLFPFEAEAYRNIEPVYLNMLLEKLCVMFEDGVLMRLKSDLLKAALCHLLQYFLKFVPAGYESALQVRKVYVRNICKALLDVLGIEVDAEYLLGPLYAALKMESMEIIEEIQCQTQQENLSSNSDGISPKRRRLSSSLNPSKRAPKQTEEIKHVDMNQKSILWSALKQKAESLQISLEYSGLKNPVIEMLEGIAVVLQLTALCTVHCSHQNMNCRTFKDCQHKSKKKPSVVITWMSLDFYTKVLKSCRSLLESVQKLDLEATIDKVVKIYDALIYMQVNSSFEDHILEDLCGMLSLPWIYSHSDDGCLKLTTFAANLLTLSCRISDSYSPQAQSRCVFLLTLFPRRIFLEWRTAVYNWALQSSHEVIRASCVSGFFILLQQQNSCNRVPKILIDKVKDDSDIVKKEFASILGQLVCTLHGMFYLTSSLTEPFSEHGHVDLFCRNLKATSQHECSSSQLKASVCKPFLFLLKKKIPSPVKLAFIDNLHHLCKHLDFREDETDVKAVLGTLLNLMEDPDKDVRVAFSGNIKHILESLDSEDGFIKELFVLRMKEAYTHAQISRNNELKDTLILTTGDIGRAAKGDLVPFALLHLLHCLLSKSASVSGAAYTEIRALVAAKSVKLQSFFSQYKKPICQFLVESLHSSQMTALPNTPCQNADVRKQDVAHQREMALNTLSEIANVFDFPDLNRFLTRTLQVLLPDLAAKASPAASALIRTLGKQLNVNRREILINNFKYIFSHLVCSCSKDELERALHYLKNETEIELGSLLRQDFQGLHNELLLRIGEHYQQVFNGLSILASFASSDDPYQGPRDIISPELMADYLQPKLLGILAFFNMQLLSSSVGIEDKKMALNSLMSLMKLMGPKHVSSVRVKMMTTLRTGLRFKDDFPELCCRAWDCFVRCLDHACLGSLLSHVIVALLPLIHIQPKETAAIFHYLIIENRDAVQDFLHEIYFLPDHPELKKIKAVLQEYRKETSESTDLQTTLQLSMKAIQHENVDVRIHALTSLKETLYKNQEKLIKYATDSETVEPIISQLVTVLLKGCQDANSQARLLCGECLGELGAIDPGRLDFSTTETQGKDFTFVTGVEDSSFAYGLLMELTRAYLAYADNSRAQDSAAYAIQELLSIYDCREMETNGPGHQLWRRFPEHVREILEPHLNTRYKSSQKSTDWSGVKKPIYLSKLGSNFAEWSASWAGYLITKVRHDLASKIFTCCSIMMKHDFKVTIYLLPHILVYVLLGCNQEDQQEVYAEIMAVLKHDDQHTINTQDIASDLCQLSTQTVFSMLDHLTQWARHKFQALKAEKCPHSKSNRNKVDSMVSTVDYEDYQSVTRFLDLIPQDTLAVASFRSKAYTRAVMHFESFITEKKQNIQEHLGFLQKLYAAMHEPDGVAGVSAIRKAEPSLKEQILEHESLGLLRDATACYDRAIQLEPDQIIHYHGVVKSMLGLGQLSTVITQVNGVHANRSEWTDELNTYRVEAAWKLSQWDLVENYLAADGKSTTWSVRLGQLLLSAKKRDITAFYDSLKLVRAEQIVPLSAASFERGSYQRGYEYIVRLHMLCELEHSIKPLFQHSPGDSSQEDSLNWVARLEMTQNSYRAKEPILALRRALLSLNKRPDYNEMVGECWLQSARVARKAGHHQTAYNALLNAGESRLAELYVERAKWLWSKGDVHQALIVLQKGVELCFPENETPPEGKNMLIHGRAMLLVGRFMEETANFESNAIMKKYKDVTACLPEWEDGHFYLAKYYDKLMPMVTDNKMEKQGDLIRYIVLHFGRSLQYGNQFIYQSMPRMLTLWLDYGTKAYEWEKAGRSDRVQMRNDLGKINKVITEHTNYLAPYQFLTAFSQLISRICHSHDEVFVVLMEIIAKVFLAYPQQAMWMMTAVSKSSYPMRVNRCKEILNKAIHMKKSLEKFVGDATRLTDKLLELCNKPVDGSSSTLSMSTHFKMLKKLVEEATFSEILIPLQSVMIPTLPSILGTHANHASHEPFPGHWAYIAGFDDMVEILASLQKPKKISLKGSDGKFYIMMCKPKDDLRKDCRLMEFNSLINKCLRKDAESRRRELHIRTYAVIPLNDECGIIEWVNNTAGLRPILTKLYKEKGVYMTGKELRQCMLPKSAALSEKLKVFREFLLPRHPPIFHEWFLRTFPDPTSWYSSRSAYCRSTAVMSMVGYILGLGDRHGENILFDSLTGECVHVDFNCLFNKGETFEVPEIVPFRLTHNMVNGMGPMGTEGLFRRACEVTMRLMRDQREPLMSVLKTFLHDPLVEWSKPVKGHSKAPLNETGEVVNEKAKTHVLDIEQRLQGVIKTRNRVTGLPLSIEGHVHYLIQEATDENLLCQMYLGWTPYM

Consider `Nc1ncc(-c2ccc(S(=O)(=O)C3CCCNC3)cc2)nc1-c1nnc(-c2ccccc2)o1` (stereo not shown) [Compound I-19], for which, in data set [1], the Ki was at most 5 nM.

Consider `Nc1ncc(-c2ccc(S(=O)(=O)[C@@H]3CCCNC3)cc2)nc1-c1cc(-c2ccc([C@@H]3COCCN3)cc2)no1` [Compound I-7, 3-(3-(4-((R)-morpholin-3-yl)phenyl)isoxazol-5-yl)-5-(4-((R)-piperidin-3-ylsulfonyl)phenyl)pyrazin-2-amine], for which the Ki in data set [1] was at most 5 nM.

Turning to `Nc1ncc(-c2ccc(S(=O)(=O)C3CCCNC3)cc2)nc1-c1cc(-c2ccccc2)no1` (stereo not shown) [Compound I-1, 3-(3-phenylisoxazol-5-yl)-5-(4-(piperidin-3-ylsulfonyl)phenyl)pyrazin-2-amine], in data set [1], the Ki was at most 5 nM. Further, in data set [2], the clearance was found to be 0.054 L/h/kg and the Vd is 0.9 L/kg.

As to `Nc1ncc(-c2ccc(S(=O)(=O)C3CCCNC3)cc2)nc1-c1cc(-c2cccs2)no1` (stereo not shown) [Compound I-3, 5-(4-(piperidin-3-ylsulfonyl)phenyl)-3-(3-(thiophen-2-yl)isoxazol-5-yl)pyrazin-2-amine], the Ki in data set [1] was at most 5 nM. Moreover, in data set [2], the clearance came to 0.198 L/h/kg and the Vd came out at 1 L/kg.

`Nc1ncc(-c2ccc(S(=O)(=O)C3CCCNC3)cc2)nc1-c1nnc(-c2ccccc2)s1` (stereo not shown) [Compound I-18, 3-(5-phenyl-1,3,4-thiadiazol-2-yl)-5-(4-(piperidin-3-ylsulfonyl)phenyl)pyrazin-2-amine]: the Ki in data set [1] was at most 5 nM.

Take `Cc1ccsc1-c1nnc(-c2nc(-c3ccc(S(=O)(=O)C4CCNCC4)cc3)cnc2N)o1` [Compound A, reference compound]: in data set [2], the clearance was found to be 2.06 L/h/kg and the Vd is 12.5 L/kg.

Consider `Nc1ncc(-c2ccc(S(=O)(=O)C3CCCNC3)cc2)nc1-c1cc(-c2nccs2)no1` (stereo not shown) [Compound I-9, 5-(4-(piperidin-3-ylsulfonyl)phenyl)-3-(3-(thiazol-2-yl)isoxazol-5-yl)pyrazin-2-amine], for which the Ki in data set [1] is at most 5 nM.

For the compound `Nc1ncc(-c2ccc(S(=O)(=O)C3CCCNC3)cc2)nc1-c1cc(-c2ccsc2)no1` (stereo not shown) [Compound I-8, 5-(4-(piperidin-3-ylsulfonyl)phenyl)-3-(3-(thiophen-3-yl)isoxazol-5-yl)pyrazin-2-amine], in data set [1], the Ki is at most 5 nM.

With `COc1ccsc1-c1nnc(-c2nc(-c3ccc(S(=O)(=O)C4CCCNC4)cc3)cnc2N)o1` (stereo not shown) [Compound I-13, 3-(5-(3-methoxythiophen-2-yl)-1,3,4-oxadiazol-2-yl)-5-(4-(piperidin-3-ylsulfonyl)phenyl)pyrazin-2-amine], the Ki in data set [1] was at most 5 nM.

`Cc1ccccc1-c1cc(-c2nc(-c3ccc(S(=O)(=O)C4CCCNC4)cc3)cnc2N)on1` (stereo not shown) [Compound I-24]: the Ki in data set [1] was in the range of 10 to 25 nM.

As to `Nc1ncc(-c2ccc(S(=O)(=O)C3CCCNC3)cc2)nc1-c1cc(-c2ccccc2O)no1` (stereo not shown) [Compound I-26], the Ki in data set [1] is at most 5 nM.

With `Nc1ncc(-c2ccc(S(=O)(=O)C3CCCNC3)cc2)nc1-c1nnc(-c2sccc2F)o1` (stereo not shown) [Compound I-11, 3-(5-(3-fluorothiophen-2-yl)-1,3,4-oxadiazol-2-yl)-5-(4-(piperidin-3-ylsulfonyl)phenyl)pyrazin-2-amine], in data set [1], the Ki is at most 5 nM.

On to `Nc1ncc(-c2ccc(S(=O)(=O)C3CCCNC3)cc2)nc1-c1nnc(-c2ccc(C3COCCN3)cc2)o1` (stereo not shown) [Compound I-17, 3-(5-(4-(morpholin-3-yl)phenyl)-1,3,4-oxadiazol-2-yl)-5-(4-(piperidin-3-ylsulfonyl)phenyl)pyrazin-2-amine], for which, in data set [1], the Ki is at most 5 nM.

For `Nc1ncc(-c2ccc(S(=O)(=O)C3CCCNC3)cc2)nc1-c1cc(-c2ccc(CNC3CCOCC3)cc2)no1` (stereo not shown) [Compound I-6, 5-(4-(piperidin-3-ylsulfonyl)phenyl)-3-(3-(4-(((tetrahydro-2H-pyran-4-yl)amino)methyl)phenyl)isoxazol-5-yl)pyrazin-2-amine], in data set [1], the Ki was at most 5 nM.

`Nc1ncc(-c2ccc(S(=O)(=O)C3CCCNC3)cc2)nc1-c1cc(-c2ccccc2Cl)no1` (stereo not shown) [Compound I-25]: the Ki in data set [1] was 10 to 25 nM.

Consider `Nc1ncc(-c2ccc(S(=O)(=O)C3CCCNC3)cc2)nc1-c1cc(-c2ccc(CO)cc2)no1` (stereo not shown) [Compound I-21], for which, in data set [1], the Ki lay in the range of 5 to 10 nM.

With `Nc1ncc(-c2ccc(S(=O)(=O)C3CCCNC3)cc2)nc1-c1cc(-c2ccc(OCCO)cc2)no1` (stereo not shown) [Compound I-20], in data set [1], the Ki lay within 5 to 10 nM.

With `Nc1ncc(-c2ccc(S(=O)(=O)C3CCCNC3)cc2)nc1-c1cc(-c2ccc(O)cc2)no1` (stereo not shown) [Compound I-4, 4-(5-(3-amino-6-(4-(piperidin-3-ylsulfonyl)phenyl)pyrazin-2-yl)isoxazol-3-yl)phenol], the Ki in data set [1] is at most 5 nM.

For the compound `COc1ccccc1-c1cc(-c2nc(-c3ccc(S(=O)(=O)C4CCCNC4)cc3)cnc2N)on1` (stereo not shown) [Compound I-23], the Ki in data set [1] was 5 to 10 nM.

Turning to `Cc1ccsc1-c1nnc(-c2nc(-c3ccc(S(=O)(=O)[C@@H]4CCCNC4)cc3)cnc2N)o1` [Compound I-16, (R)-3-(5-(3-methylthiophen-2-yl)-1,3,4-oxadiazol-2-yl)-5-(4-(piperidin-3-ylsulfonyl)phenyl)pyrazin-2-amine], in data set [1], the Ki is at most 5 nM.

`COc1ccccc1-c1nnc(-c2nc(-c3ccc(S(=O)(=O)C4CCCNC4)cc3)cnc2N)o1` (stereo not shown) [Compound I-14, 3-(5-(2-methoxyphenyl)-1,3,4-oxadiazol-2-yl)-5-(4-(piperidin-3-ylsulfonyl)phenyl)pyrazin-2-amine]: in data set [1], the Ki was at most 5 nM. In data set [2], the clearance came to 0.96 L/h/kg and the Vd was found to be 2 L/kg.

In the case of `Cc1ccsc1-c1nnc(-c2nc(-c3ccc(S(=O)(=O)[C@H]4CCCNC4)cc3)cnc2N)o1` [Compound I-15, (S)-3-(5-(3-methylthiophen-2-yl)-1,3,4-oxadiazol-2-yl)-5-(4-(piperidin-3-ylsulfonyl)phenyl)pyrazin-2-amine], the Ki in data set [1] is at most 5 nM.

Turning to `CNCc1ccc(-c2cc(-c3nc(-c4ccc(S(=O)(=O)C5CCCNC5)cc4)cnc3N)on2)cc1` (stereo not shown) [Compound I-5, 3-(3-(4-((methylamino)methyl)phenyl)isoxazol-5-yl)-5-(4-(piperidin-3-ylsulfonyl)phenyl)pyrazin-2-amine], in data set [1], the Ki is at most 5 nM.

As for `Nc1ncc(-c2ccc(S(=O)(=O)C3CCCNC3)cc2)nc1-c1cc(-c2ccccc2F)no1` (stereo not shown) [Compound I-22], the Ki in data set [1] was 10 to 25 nM.

Regarding `Cc1ccsc1-c1cc(-c2nc(-c3ccc(S(=O)(=O)C4CCCNC4)cc3)cnc2N)on1` (stereo not shown) [Compound I-2, 3-(3-(3-methylthiophen-2-yl)isoxazol-5-yl)-5-(4-(piperidin-3-ylsulfonyl)phenyl)pyrazin-2-amine], the Ki in data set [1] was at most 5 nM.

On to `Cc1ccsc1-c1nnc(-c2nc(-c3ccc(S(=O)(=O)C4CCCNC4)cc3)cnc2N)o1` (stereo not shown) [Compound I-10, 3-(5-(3-methylthiophen-2-yl)-1,3,4-oxadiazol-2-yl)-5-(4-(piperidin-3-ylsulfonyl)phenyl)pyrazin-2-amine], for which the Ki in data set [1] is at most 5 nM. Further, the “PK properties (clearance and volume of distribution) compared with similar compounds” value in data set [2] (compared to a similar 4-piperidine compound (Compound A)) was “much lower clearance and volume of distribution”. In data set [2], the clearance was 0.558 L/h/kg and the Vd worked out at 3 L/kg.

In the case of `Nc1ncc(-c2ccc(S(=O)(=O)C3CCCNC3)cc2)nc1-c1nnc(-c2cccs2)o1` (stereo not shown) [Compound I-12, 5-(4-(piperidin-3-ylsulfonyl)phenyl)-3-(5-(thiophen-2-yl)-1,3,4-oxadiazol-2-yl)pyrazin-2-amine], in data set [1], the Ki is at most 5 nM.

As a reminder, the clearance is the volume of plasma or blood freed of the substance per unit of time. The low end stands for inefficient removal, the high end for efficient removal.
